Test results reported in patent publication US20170202845A1, “PROPHYLACTIC OR THERAPEUTIC AGENT FOR A POSTERIOR OCULAR DISEASE” (SANTEN PHARMACEUTICAL CO., LTD., priority 2014, published 2017).

System: choroidal neovascularization
Assay: laser-induced rat choroidal neovascularization model
Assay type: in vivo
Description: Usefulness of the present compounds was evaluated using a laser-induced rat choroidal neovascularization model (Invest. Ophthalmol. Vis. Sci., 40(2), 459-466 (1999)).
A rat was generally anesthetized by intramuscular administration of 1 mL/kg of a mixed solution (7:1) comprising a 5% (W/V) ketamine hydrochloride injection solution and a 2% xylazine hydrochloride injection solution. 0.5% (W/V) Tropicamide-0.5% phenylephrine hydrochloride eye drop was dropped into eyes for mydriasis, and photocoagulation was carried out with a krypton laser photocoagulation apparatus. […]
At the 7th day after the photocoagulation, the rat was generally anesthetized by intramuscular administration of 1 mL/kg of a mixed solution (7:1) comprising a 5% (W/V) ketamine hydrochloride injection solution and a 2% xylazine hydrochloride injection solution. […] The spot of photocoagulation with no leakage of fluorescence detected by fluorescein fundus angiography was judged as negative (no neovascularization), and the spot of photocoagulation with leakage of fluorescence was judged as positive. The spot of photocoagulation with slight leakage of fluorescence was judged as positive (neovascularization exists) when 2 or more spots of such a state were detected in one eye. […]

CC(=O)N[C@@H]1C[C@H](NC(C)(C)C)CC[C@@H]1N1CC[C@H](Nc2ncnc3cc(C(C)(C)C)nn23)C1=O [Compound 1b, N-((1R,2S,5R)-5-(tert-butylamino)-2-((S)-3-(7-tert-butylpyrazolo[1,5-a][1,3,5]triazin-4-ylamino)-2-oxopyrrolidin-1-yl)cyclohexyl)acetamide]
Suppressing rate (%) (krypton laser-induced rat choroidal neovascularization, 100 mg/kg orally twice a day for 7 days, fluorescein fundus angiography at 7th day, relative to base administered group): 66.6% | inhibition of choroidal neovascularization (in words) (laser-induced rat choroidal neovascularization model animal): inhibit choroidal neovascularization
